Tests used:
[1] = target: T1, human FGFR4 (Homo sapiens, UniProt P22455); assay: FGFR4 enzymatic assay (HTRF KinEASE-TK); assay type: biochemical; conditions: wild-type human FGFR4 cytoplasmic domain (460-802), GST-tag; 60 min preincubation at 25° C.; ATP 200 μM; read-out: Potency (IC50), FGFR4 enzymatic assay
T1 construct: human FGFR4 cytoplasmic domain (460-802); GST (N); purchased Carna Biosciences 08-136
Procedure, shortened: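 GST-tagged FGFR4 cytoplasmic domain (460-802) at 0.25 μg/ml, preincubated with compound 60 min at 25 °C in HEPES pH 7.0 buffer, then reacted 40 min at 37 °C with 0.3 μM biotin-TK peptide and 200 μM ATP. HTRF detection (665/612 nm) after 60 min; IC50 by four-parameter logistic fit.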

[2] = system: Hep3B cells; assay: Cell-based FGFR4 proliferation assay (CellTiter-Glo); conditions: Homo sapiens, Hep3B, 72 h, incubated with test compound for 3 days, CellTiter-Glo luminescence, read-out: Potency (IC50), Hep3B cell proliferation
Procedure, shortened: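 Hep3B cells in MEM/10% FBS were seeded overnight, then exposed to serially diluted compound (DMSO) for 3 days at 37 °C, 5% CO2. Viable cells were quantified by CellTiter-Glo luminescence (ATP), and IC50 was fitted by four-parameter logistic from percent inhibition.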

[3] = system: MAPK phosphorylation in Hep3B cells stimulated with FGF19; assay: FGFR4 pMAPK AlphaLISA SureFire Ultra assay; assay type: cell-based; conditions: Homo sapiens, Hep3B, serum-starved, compound 1 hour, FGF19 100 ng/ml for 4 hours, read-out: Potency (IC50), FGFR4 pMAPK AlphaLISA
Source text: Cell line: Hepatocellular carcinoma cell line Hep3B (ATCC, Cat #HB-8064).
In normal liver, circulating FGF19 drives liver cell proliferation and regulates bile acid production. However aberrant expression of FGF19 in the liver drives HCC tumorigenesis, upregulates MAPK phosphorylation in FGF19-amplified malignant liver cells. AlphaScreen SureFire technology allows the detection of phosphorylated proteins in cellular lysates in a highly sensitive, quantitative assay. In these assays, sandwich antibody complexes, which are only formed in the presence of analyte, are captured by AlphaScreen Donor and Acceptor beads, bringing them into close proximity. The excitation of the Donor bead provokes the release of singlet oxygen molecules that triggers a cascade of energy transfer in the Acceptor beads, resulting in the emission of light at 520-620 nm.
Hep3B cells were plated at a density of 1×10^4/ml cells in a 96-well plate (Corning #3599), with 100 uL per well of MEM Medium (Gibco Cat #11095-080) supplemented with 10% fetal bovine serum; 1% Penicillin-Streptomycin, and cultured overnight at 37° C., 5% CO2. Starve Hep3B cells in serum-free medium (SFM) supplemented with 0.2% BSA and incubate the cells again overnight at 37° C., 5% CO2. Various concentrations of the test compound (prepared in 2x SFM) were added to the wells of the cell plate and then incubated for 1 hour at 37° C., 5% CO2. 50 μL of FGF19 in SFM was added to each well of the cell plate with a final FGF19 concentration of 100 ng/ml, and cells treated with FGF19 were stimulated for 4 hours at 37° C., 5% CO2. 5 μL of freshly prepared Donor Mix and Acceptor Mix were sequentially added to the cell plate, each followed with 1 hour of incubation at 25° C., 5% CO2. Read the cell plate on an Alpha Technology-compatible plate reader at 570 nm AlphaScreen, using standard AlphaLISA settings. The percent (%) inhibition=((ZPE−Alpha-Signal)/(ZPE−HPE))*100% where the meanings of HPE and ZPE are as provided below.
HPE: Hundred Percent Effect, negative control well without FGF19 nor compound. Final concentration of DMSO is 0.1%.
ZPE: Zero Percent Effect, positive control well without compound. Final concentration of FGF19 is 100 ng/mL, DMSO is 0.1%.
The concentrations and percent inhibition values for a test compound were plotted and the concentration of the compound required to achieve 50% inhibition (IC50) was determined with a four-parameter logistic dose response equation. Dose-response curves were generated using Prism (GraphPad Software, La Jolla, CA, US) to calculate IC50 values for each compound tested.

T1 sequence (P22455 460-802): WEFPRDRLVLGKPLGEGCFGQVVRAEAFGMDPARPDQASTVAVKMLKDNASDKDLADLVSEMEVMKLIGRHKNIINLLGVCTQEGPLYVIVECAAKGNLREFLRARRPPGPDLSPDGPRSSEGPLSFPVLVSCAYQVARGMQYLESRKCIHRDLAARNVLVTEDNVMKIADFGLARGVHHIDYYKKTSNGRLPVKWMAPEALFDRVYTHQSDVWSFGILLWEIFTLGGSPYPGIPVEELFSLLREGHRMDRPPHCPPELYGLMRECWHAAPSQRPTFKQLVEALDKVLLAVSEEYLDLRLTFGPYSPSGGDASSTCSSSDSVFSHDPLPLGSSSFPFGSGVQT

- IC50 [1]: < 10 nM
- IC50 [2]: 10 to 100 nM
- IC50 [3]: < 10 nM
SMILES: C=CC(=O)Nc1cnn(CC)c1-c1n[nH]c2c1CC[C@H](c1c(F)c(OC)cc(OC)c1F)C2 [Compound S14-P2, (S)—N-(5-(6-(2,6-difluoro-3,5-dimethoxyphenyl)-4,5,6,7-tetrahydro-1H-indazol-3-yl)-1-ethyl-1H-pyrazol-4-yl) acrylamide]
